Data published in patent US20110212108A1, “NEUREGULIN/ERBB SIGNALING AND INTEGRIN” (THE REGENTS OF THE UNIVERSITY OF CALIFORNIA, priority 2008, published 2011).
Entries after “also recorded” stand apart in the source; their conditions may differ.

T1: CHO cells that express human β3 (β3-CHO) (Homo sapiens, UniProt P05106)
T1 construct: expressed in transfected cells; host or cells: CHO
T1 sequence (P05106 27-788): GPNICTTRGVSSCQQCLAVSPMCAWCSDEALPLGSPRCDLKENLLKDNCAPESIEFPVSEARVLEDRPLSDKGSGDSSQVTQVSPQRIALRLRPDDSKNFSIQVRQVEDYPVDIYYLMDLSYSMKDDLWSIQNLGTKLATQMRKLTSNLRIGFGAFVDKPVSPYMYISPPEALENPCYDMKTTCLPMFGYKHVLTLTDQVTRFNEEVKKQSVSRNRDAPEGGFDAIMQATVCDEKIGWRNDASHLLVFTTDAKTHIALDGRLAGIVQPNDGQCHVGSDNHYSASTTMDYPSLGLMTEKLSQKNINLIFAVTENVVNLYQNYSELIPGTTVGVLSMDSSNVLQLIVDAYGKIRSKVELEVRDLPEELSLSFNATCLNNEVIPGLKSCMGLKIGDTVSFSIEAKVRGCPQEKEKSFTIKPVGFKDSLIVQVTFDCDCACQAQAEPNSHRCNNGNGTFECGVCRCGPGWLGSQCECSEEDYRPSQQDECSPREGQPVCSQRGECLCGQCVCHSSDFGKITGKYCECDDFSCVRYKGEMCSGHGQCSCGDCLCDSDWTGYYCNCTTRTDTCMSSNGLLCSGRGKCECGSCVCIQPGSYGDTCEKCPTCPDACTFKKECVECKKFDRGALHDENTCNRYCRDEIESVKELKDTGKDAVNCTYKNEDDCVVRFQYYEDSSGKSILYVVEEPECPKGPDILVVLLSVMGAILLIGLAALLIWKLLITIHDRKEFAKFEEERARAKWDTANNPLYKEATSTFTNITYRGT


How the values were obtained:
M21 human melanoma cells = experiment: Western blotting of signaling in M21 cells; format: cell-based; settings: 10 ng/ml; for ERK1/2 activation in M21 cells / ErbB3 phosphorylation in M21 cells: 15 min
Protocol: FIG. 9. Effect of the 3KE (175-222) mutation on ErbB3 phosphorylation, ERK1/2 activation, and cyclin D1 levels in M21 human melanoma cells. Cells were cultured in DMEM+1% FBS medium for 24 h, and then treated with 3KE or WT NRG1 (175-222) (10 ng/ml, if concentrations were not indicated) for 15 min (if time is not specified). Cell lysates were analyzed by Western blotting.
(§1) Cell proliferation: cells were starved by culturing DMEM with low-level FCS (e.g., 0.4%) overnight and then treated with the wt or mutant NRG1 (175-222) (up to 100 ng/ml). The cells were harvested in 15 min to 6 h after stimulation and cell lysates analyzed by western blotting with antibodies specific to signaling molecules. Alternatively, cells were cultured for 24-48 h after stimulation for testing proliferation or cell viability by MTS assays. Statistical analysis and calculation of kinetic constants were performed using Prism software (Graphpad).
(§2) Signaling: The levels of cell proliferation were measured by MTS assays and the kinetic data were analyzed by using Prism software (Graphpad). Melanoma cells were cultured in the presence of wt or mutant NRG1 (175-222), and the levels of ErbB2 and B3 phosphorylation, MAP kinase activation, or activation of other signaling molecules in the cell lysates were monitored by immunoprecipitating ErbB2 and B3 from the lysates and detecting tyrosine phosphorylation by western blotting with anti-phosphotyrosine antibodies (the IP-Western method) for ErbB2 and B3. Alternatively, anti-phospho ErbB2 or B3 antibodies (commercially available) and anti-phospho ERK1/2 antibodies were used.

B16F10 melanoma cells = experiment: Western blotting of signaling in B16F10 cells; format: cell-based, mouse; settings: 10 ng/ml
Protocol: FIG. 11. […] Cells were serum starved and stimulated with 10 ng/ml wt or mutant NRG1 (175-222). Cell lysates were analyzed by western blotting.
as §1, §2

[1] = test system: estrogen-dependent and independent breast cancer cell lines; experiment: Growth of breast cancer cell lines; format: cell-based; settings: several estrogen-dependent and independent lines
[2] = test system: integrin β3 cytoplasmic domain; experiment: Tyr-phosphorylation of integrin β3 cytoplasmic domain in M21 cells, Western blotting; format: cell-based, human; settings: 10 ng/ml, serum-starved, 30 min
Protocol: FIG. 13. Wt NRG1 (175-222) enhanced Tyr-phosphorylation of the integrin β3 cytoplasmic domain, while 3KE (175-222) suppressed it in M21 cells. Serum-starved M21 cells were stimulated with 10 ng/ml wt or 3KE NRG1 (175-222). Tyr-phosphorylation of β3 was determined by Western blotting of cell lysates.
It has recently been reported that Tyr phosphorylation of the β3 tail plays a role in VEGF and insulin-like growth factor-1 (IGF1) (Clemmons et al. 2007; Mahabeleshwar et al. 2007). It was tested if NRG1 signaling requires Tyr-phosphorylation of the β3 tail in M21 cells. As shown here, the β3 tail is constitutively Tyr-phosphorylated in serum-starved cells.

[3] = target: T1, CHO cells that express human β3 (β3-CHO); experiment: Cell adhesion assay, β3-CHO cells; format: cell-based
Protocol: (§3) CHO or K562 cells expressing different recombinant integrins were previously known and available (Zhang et al. 1998; Tarui et al. 2006). Labeling of proteins with FITC or […] was performed according to manufacturers' instructions. Flow cytometry was performed as described above.
(§4) Cell adhesion and soluble integrin binding assays were performed as described previously (Mori, et al., 2008). NRG1α (175-241) was immobilized to wells of 96-well microtiter plate overnight at 4° C. in 0.1 M carbonate buffer, pH 2 9.4. Remaining protein binding sites were blocked by incubating with 200 μl of 0.1% BSA in PBS for 60 min at room temperature. Wells were then incubated with soluble integrin αvβ3 in 50 μl in Hepes-Tyrode's buffer supplemented with 1 mM Mn2+ at room temperature for 60 min. After rinsing the wells with the same buffer, bound integrins were determined by horseradish peroxidase (HRP)-conjugated anti-His tag mouse IgG and substrate 3,3′,5,5′-tetramethylbenzidine of HRP.

[4] = target: T2, CHO cells that express human β1 (β1-CHO) (Homo sapiens, UniProt P05556); experiment: Cell adhesion assay, β1-CHO cells; format: cell-based
T2 construct: expressed in transfected cells; host or cells: CHO
Protocol: FIG. 3. Adhesion of CHO cells that express human β1 (β1-CHO) or β1-3-1 (β1-3-1-CHO) to wt NRG1 (175-222). The β1-3-1 mutation changes the specificity of β1 integrins to that of β3 integrins. Cell adhesion was performed as described herein. β1-3-1-CHO cells adhered to wt NRG1 (175-222) and this binding was blocked by anti-human β1 antibody AIIB2, but not by purified mouse IgG (mIgG). BSA: BSA as a control was coated instead of NRG1 (175-222).
as §3, with “above. Also, adhesion assays as described above were used to confirm the findings using flow cytometry.” for “above.”
as §4, with “Wells were then incubated with soluble integrin αvβ3 in 50 μl in Hepes-Tyrode's buffer supplemented with 1 mM Mn2+ at room temperature for 60 min.” left out

T2 sequence (P05556 21-798): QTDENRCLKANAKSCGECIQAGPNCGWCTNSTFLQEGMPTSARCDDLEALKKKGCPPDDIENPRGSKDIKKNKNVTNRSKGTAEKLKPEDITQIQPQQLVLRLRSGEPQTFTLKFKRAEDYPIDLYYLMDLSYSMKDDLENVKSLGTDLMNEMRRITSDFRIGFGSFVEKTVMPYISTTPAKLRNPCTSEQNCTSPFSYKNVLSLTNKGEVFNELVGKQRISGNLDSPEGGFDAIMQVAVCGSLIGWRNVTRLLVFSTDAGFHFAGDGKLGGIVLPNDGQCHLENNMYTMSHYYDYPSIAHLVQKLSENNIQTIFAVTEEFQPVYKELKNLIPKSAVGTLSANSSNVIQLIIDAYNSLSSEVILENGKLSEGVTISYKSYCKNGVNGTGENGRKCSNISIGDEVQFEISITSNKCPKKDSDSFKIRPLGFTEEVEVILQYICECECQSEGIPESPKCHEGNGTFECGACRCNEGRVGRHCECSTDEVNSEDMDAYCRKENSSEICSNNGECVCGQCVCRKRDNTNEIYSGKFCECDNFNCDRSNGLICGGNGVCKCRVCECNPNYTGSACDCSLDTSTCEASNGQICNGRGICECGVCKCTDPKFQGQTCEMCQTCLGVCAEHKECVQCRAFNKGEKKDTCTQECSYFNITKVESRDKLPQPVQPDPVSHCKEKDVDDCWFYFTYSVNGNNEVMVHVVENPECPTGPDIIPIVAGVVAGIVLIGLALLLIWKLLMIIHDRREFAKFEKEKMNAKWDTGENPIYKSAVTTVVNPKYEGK

| Molecule | cyclin D1 levels in M21 cells (M21 human melanoma cells) | ERK1/2 activation in M21 cells (M21 human melanoma cells) | ErbB3 phosphorylation in M21 cells (M21 human melanoma cells) | D1 cyclin levels in B16F10 cells (B16F10 melanoma cells) | ERK1/2 activation in B16F10 cells (B16F10 melanoma cells) | Growth of breast cancer cells [1] | Tyr-phosphorylation of the integrin β3 tail in M21 cells [2] | Adhesion of β3-CHO cells to the immobilized protein [3] | Adhesion of β1-CHO cells to the immobilized protein [4] | ERK1/2 activation in M21 cells (M21 human melanoma cells; listed as Wt NRG1 (175-222)) | AKT activation in B16F10 cells (B16F10 melanoma cells) |
| --- | --- | --- | --- | --- | --- | --- | --- | --- | --- | --- | --- |
| 3KE (175-222): NRG1 (175-222) with Lys181/Lys185/Lys187 mutated to Glu; GTSHLVECAEEEETFCVNGGECFMVKDLSNPSRYLCKCQPGFTGARCT (SEQ ID NO:11) (integrin-binding site within human neuregulin, 3KE mutant, short version) | suppressed | did not induce the level of ERK1/2 activation; also recorded: suppressed ERK1/2 activation | did not induced ErbB3 phosphorylation | suppressed D1 cyclin levels very rapidly | did not induce them | did not | suppressed it | – | – | – | – |
| wt NRG1 (175-222): wild type human neuregulin 1 fragment, EGF-like domain, residues 175-222 of SEQ ID NO:4 (SEQ ID NO:3) (GTSHLVKCAEKEKTFCVNGGECFMVKDLSNPSRYLCKCQPGFTGARCT; integrin-binding site within human neuregulin 1 EGF-like region and portion of alpha domain, residues 175-222 of human neuregulin 1 alpha) [reference compound] | – | enhanced the level of ERK1/2 activation | induced ErbB3 phosphorylation | – | induced | enhanced the growth of breast cancer cells | enhanced levels of Tyr-phosphorylation | adhered to NRG1 (175-222) | did not | induced | induced |
| WT NRG1α (175-241): wild type human neuregulin 1 fragment, residues 175-241 of SEQ ID NO:4 (SEQ ID NO:5), entire EGF-like motif and α domain (protein, integrin-binding site within human neuregulin, residues 175-241of human neuregulin 1alpha, long version) GTSHLVKCAEKEKTFCVNGGECFMVKDLSNPSRYLCKCQPGFTGARCTENVPMKVQNQEKAEELYQK | – | – | – | – | – | – | – | adhered to NRG1α (175-241) | did not | – | – |
